Measured values taken from US20080119501A1, “IMMEDIATE RELEASE OXYMORPHONE COMPOSITIONS AND METHODS OF USING SAME” (priority 2006, published 2008).

Assay: Single- and multiple-dose pharmacokinetic and dose-proportionality study of oxymorphone IR tablets in healthy subjects
Settings: for AUC∞, mean: n=23; for AUC(0-inf) / concentration at 6 day / concentration at 7 day / concentration at 8 day / Cmax / half-life: both, human, oral
[1] = single dose oxymorphone IR 5 mg
[2] = single dose oxymorphone IR 5 mg, plasma
[3] = single dose oxymorphone IR 10 mg
[4] = single dose oxymorphone IR 10 mg, plasma
[5] = single dose oxymorphone IR 20 mg
[6] = single dose oxymorphone IR 20 mg, plasma
[7] = steady state, oxymorphone IR 5 mg q6 h
[8] = steady state, oxymorphone IR 10 mg q6 h
[9] = steady state, oxymorphone IR 20 mg q6 h

CN1CC[C@]23c4c5ccc(O)c4O[C@H]2C(O)CC[C@@]3(O)[C@H]1C5 (stereo partly drawn) [6-OH-oxymorphone]
t1/2 (terminal elimination half-life), mean [1]: 7.27 h
terminal elimination rate constant, mean [1]: 0.1661 h⁻¹
tmax, median [1]: 0.50 h
Cmax, mean [2]: 095 ng/mL
AUC∞, mean [2]: 4.02 ng·h/mL
t1/2 (terminal elimination half-life), mean [3]: 13.72 h
terminal elimination rate constant, mean [3]: 0.0752 h⁻¹
tmax, median [3]: 0.50 h
Cmax, mean [4]: 1.62 ng/mL
AUC∞, mean [4]: 9.90 ng·h/mL
t1/2 (terminal elimination half-life), mean [5]: 18.35 h
terminal elimination rate constant, mean [5]: 0.0414 h⁻¹
tmax, median [5]: 0.50 h
Cmax, mean [6]: 3.57 ng/mL
AUC∞, mean [6]: 24.37 ng·h/mL
deviation from a linear dose response (single-dose administration): approximately 20%
AUCSS, mean [7]: 4.98 ng·h/mL
Cavg (average plasma concentration), mean [7]: 0.83 ng/mL
Cmax, mean [7]: 1.55 ng/mL
Cmin, mean [7]: 0.70 ng/mL
tmax, median [7]: 0.50 h
AUCSS, mean [8]: 10.77 ng·h/mL
Cavg (average plasma concentration), mean [8]: 1.80 ng/mL
Cmax, mean [8]: 3.12 ng/mL
Cmin, mean [8]: 1.52 ng/mL
tmax, median [8]: 0.50 h
AUCSS, mean [9]: 23.68 ng·h/mL
Cavg (average plasma concentration), mean [9]: 3.95 ng/mL
Cmax, mean [9]: 6.94 ng/mL
Cmin, mean [9]: 3.34 ng/mL
tmax, median [9]: 0.50 h
deviation from a linear dose response (steady-state concentrations): approximately 10%

CN1CC[C@]23c4c5ccc(O)c4O[C@H]2C(=O)CC[C@@]3(O)[C@H]1C5 [Oxymorphone, oxymorphone]
dose proportionality of dose-normalised AUC∞, AUCss or Cmax (5-20 mg, single dose and steady state): linear and dose-proportional pharmacokinetics
AUC(0-inf) (plasma, 5 mg): 4.48 ng·h/mL
concentration at 6 day (plasma, 5 mg): 0.47 ng/mL
concentration at 7 day (plasma, 5 mg): 0.5 ng/mL
concentration at 8 day (plasma, 5 mg): 0.49 ng/mL
Cmax (plasma, 5 mg, mean, single dose oxymorphone IR 5 mg): 1.1 ng/mL
Cmax (plasma, 5 mg, mean, steady state, oxymorphone IR 5 mg q6 h): 1.73 ng/mL
half-life (plasma, 5 mg, t1/2 (terminal elimination half-life), mean, single dose oxymorphone IR 5 mg): 7.25 h
AUC(0-inf) (plasma, 10 mg): 9.1 ng·h/mL
concentration at 6 day (plasma, 10 mg): 0.98 ng/mL
concentration at 7 day (plasma, 10 mg): 0.99 ng/mL
concentration at 8 day (plasma, 10 mg): 1.16 ng/mL
Cmax (plasma, 10 mg, mean, single dose oxymorphone IR 10 mg): 1.93 ng/mL
Cmax (plasma, 10 mg, mean, steady state, oxymorphone IR 10 mg q6 h): 3.51 ng/mL
half-life (plasma, 10 mg, t1/2 (terminal elimination half-life), mean, single dose oxymorphone IR 10 mg): 7.78 h
AUC(0-inf) (plasma, 20 mg): 20.1 ng·h/mL
concentration at 6 day (plasma, 20 mg): 2.05 ng/mL
concentration at 7 day (plasma, 20 mg): 2.31 ng/mL
concentration at 8 day (plasma, 20 mg): 2.47 ng/mL
Cmax (plasma, 20 mg, mean, single dose oxymorphone IR 20 mg): 4.39 ng/mL
Cmax (plasma, 20 mg, mean, steady state, oxymorphone IR 20 mg q6 h): 7.33 ng/mL
half-life (plasma, 20 mg, elimination half-life (t1/2) across doses, single dose, oxymorphone IR 5, 10 and 20 mg): 7.3 to 9.4 h
half-life (plasma, 20 mg, t1/2 (terminal elimination half-life), mean, single dose oxymorphone IR 20 mg): 9.43 h
time to achieve steady-state conditions (dosing every 6 hours, from trough concentrations): 3 to 4 days
CL/F (oral clearance), mean [1]: 23.53 L/min
Ln-CL/F, geometric least square mean (standard error), normalised to 10 mg [1]: 20.61 (1.05) L/min
terminal elimination rate constant, mean [1]: 0.1534 h⁻¹
CL/F (oral clearance), mean [3]: 21.42 L/min
Ln-CL/F, geometric least square mean (standard error), normalised to 10 mg [3]: 19.62 (1.05) L/min
terminal elimination rate constant, mean [3]: 0.1257 h⁻¹
CL/F (oral clearance), mean [5]: 18.21 L/min
Ln-CL/F, geometric least square mean (standard error), normalised to 10 mg [5]: 17.27 (1.05) L/min
terminal elimination rate constant, mean [5]: 0.0835 h⁻¹
Ln-CL/F, geometric least square mean (standard error), normalised to 10 mg (steady state, every 6 hours, oxymorphone IR 5 mg): 18.70 (1.03) L/min
Ln-CL/F, geometric least square mean (standard error), normalised to 10 mg (steady state, every 6 hours, oxymorphone IR 10 mg): 17.08 (1.03) L/min
Ln-CL/F, geometric least square mean (standard error), normalised to 10 mg (steady state, every 6 hours, oxymorphone IR 20 mg): 16.72 (1.03) L/min
C/LF (oral clearance), mean [7]: 19.23 L/min
Cavg (average plasma concentration), mean [7]: 0.77 ng/mL
Cmin, mean [7]: 0.49 ng/mL
C/LF (oral clearance), mean [8]: 17.63 L/min
Cavg (average plasma concentration), mean [8]: 1.70 ng/mL
Cmin, mean [8]: 1.16 ng/mL
tmax, median [8]: 0.50 h
C/LF (oral clearance), mean [9]: 17.68 L/min
Cavg (average plasma concentration), mean [9]: 3.52 ng/mL
Cmin, mean [9]: 2.47 ng/mL

CN1CC[C@]23c4c5ccc(O[C@@H]6O[C@H](C(=O)O)[C@@H](O)[C@H](O)[C@H]6O)c4O[C@H]2C(=O)CC[C@@]3(O)[C@H]1C5 [Oxymorphone-3-glucuronide, oxymorphone-3-glucuronide]
t1/2 (terminal elimination half-life), mean [1]: 8.48 h
terminal elimination rate constant, mean [1]: 0.0936 h⁻¹
tmax, median [1]: 1.00 h
Cmax, mean [2]: 134.24 ng/mL
AUC∞, mean [2]: 650.03 ng·h/mL
t1/2 (terminal elimination half-life), mean [3]: 9.15 h
terminal elimination rate constant, mean [3]: 0.0805 h⁻¹
tmax, median [3]: 1.00 h
Cmax, mean [4]: 265.78 ng/mL
AUC∞, mean [4]: 1322.72 ng·h/mL
t1/2 (terminal elimination half-life), mean [5]: 9.67 h
terminal elimination rate constant, mean [5]: 0.0763 h⁻¹
tmax, median [5]: 1.00 h
Cmax, mean [6]: 516.26 ng/mL
AUC∞, mean [6]: 2672.40 ng·h/mL
AUCSS, mean [7]: 618.77 ng·h/mL
Cavg (average plasma concentration), mean [7]: 103.13 ng/mL
Cmax, mean [7]: 180.25 ng/mL
Cmin, mean [7]: 59.67 ng/mL
tmax, median [7]: 1.00 h
AUCSS, mean [8]: 1321.37 ng·h/mL
Cavg (average plasma concentration), mean [8]: 220.23 ng/mL
Cmax, mean [8]: 376.25 ng/mL
Cmin, mean [8]: 136.77 ng/mL
tmax, median [8]: 1.00 h
AUCSS, mean [9]: 2557.29 ng·h/mL
Cavg (average plasma concentration), mean [9]: 426.22 ng/mL
Cmax, mean [9]: 722.24 ng/mL
Cmin, mean [9]: 272.54 ng/mL
tmax, median [9]: 1.00 h
